From ChEMBL document CHEMBL1240332, “Mechanisms, biology and inhibitors of deubiquitinating enzymes” (Nat Chem Biol, 2007)
pIC50, pKi: −log10 of the molar value.

Tests used:
[1] = target: T1, Caspase-3 (Homo sapiens, UniProt P42574); experiment: Inhibition of caspase3
T1 sequence (P42574 whole entry): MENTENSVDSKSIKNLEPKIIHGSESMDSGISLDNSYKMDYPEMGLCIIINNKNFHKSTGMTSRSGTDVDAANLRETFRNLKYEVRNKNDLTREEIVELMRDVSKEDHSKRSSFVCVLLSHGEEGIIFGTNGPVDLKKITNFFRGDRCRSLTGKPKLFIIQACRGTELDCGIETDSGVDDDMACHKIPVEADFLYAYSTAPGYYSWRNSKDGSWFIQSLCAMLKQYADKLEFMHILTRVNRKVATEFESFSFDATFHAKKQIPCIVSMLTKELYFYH

[2] = target: T2, Ubiquitin carboxyl-terminal hydrolase 5 (Homo sapiens, UniProt P45974); experiment: Inhibition of isopeptidase T
T2 sequence (P45974 whole entry): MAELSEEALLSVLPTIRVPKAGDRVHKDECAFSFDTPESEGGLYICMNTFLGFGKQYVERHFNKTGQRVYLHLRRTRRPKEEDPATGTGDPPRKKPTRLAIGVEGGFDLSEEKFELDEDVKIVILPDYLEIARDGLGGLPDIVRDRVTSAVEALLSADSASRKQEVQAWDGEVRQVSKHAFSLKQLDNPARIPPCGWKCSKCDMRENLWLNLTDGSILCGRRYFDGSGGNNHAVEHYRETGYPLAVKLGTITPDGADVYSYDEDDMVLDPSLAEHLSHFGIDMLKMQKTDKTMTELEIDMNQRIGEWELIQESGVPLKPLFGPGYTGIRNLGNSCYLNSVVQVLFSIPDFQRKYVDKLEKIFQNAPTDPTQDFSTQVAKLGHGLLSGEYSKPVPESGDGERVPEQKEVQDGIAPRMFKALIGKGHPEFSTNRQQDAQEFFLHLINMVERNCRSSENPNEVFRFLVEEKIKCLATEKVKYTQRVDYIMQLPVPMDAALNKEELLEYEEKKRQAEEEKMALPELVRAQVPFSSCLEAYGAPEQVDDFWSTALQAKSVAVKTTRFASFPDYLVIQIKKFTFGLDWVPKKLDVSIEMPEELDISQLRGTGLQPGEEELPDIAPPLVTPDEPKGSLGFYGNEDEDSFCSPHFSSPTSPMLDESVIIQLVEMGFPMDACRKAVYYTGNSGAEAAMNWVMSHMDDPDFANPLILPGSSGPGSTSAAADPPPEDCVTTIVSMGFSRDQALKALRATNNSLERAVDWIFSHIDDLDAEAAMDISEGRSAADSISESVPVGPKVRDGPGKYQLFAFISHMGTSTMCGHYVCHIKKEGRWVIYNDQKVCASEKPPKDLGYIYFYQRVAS

[3] = target: T3, Protein-glutamine gamma-glutamyltransferase (Homo sapiens, UniProt P21980); experiment: Inhibition of tissue transglutaminase
T3 sequence (P21980 whole entry): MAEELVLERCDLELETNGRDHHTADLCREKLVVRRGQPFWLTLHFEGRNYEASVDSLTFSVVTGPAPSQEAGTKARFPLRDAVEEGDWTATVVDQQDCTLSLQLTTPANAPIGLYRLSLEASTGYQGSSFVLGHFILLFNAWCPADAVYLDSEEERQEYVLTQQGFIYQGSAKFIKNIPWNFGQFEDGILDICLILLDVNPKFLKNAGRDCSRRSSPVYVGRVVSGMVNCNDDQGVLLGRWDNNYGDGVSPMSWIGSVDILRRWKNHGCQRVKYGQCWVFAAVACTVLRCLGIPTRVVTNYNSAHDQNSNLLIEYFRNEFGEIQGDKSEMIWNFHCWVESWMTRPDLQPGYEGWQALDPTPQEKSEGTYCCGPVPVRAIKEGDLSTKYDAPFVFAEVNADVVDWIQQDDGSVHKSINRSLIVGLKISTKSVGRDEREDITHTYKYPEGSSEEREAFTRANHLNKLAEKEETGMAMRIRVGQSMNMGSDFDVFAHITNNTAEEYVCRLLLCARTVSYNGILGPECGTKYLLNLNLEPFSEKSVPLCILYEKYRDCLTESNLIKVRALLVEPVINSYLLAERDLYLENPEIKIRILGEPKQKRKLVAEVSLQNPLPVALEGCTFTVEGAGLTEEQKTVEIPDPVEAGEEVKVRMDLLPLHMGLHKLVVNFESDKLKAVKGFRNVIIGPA

[4] = target: T4, Ubiquitin carboxyl-terminal hydrolase isozyme L3 (Homo sapiens, UniProt P15374); experiment: Inhibition of UCHL3
T4 sequence (P15374 whole entry): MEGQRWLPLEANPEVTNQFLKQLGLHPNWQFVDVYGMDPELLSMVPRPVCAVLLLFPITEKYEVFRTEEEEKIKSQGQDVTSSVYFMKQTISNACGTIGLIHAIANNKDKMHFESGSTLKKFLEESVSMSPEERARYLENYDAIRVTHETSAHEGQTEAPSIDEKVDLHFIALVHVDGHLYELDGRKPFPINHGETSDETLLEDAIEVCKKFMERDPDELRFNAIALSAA

[5] = target: T4, Ubiquitin carboxyl-terminal hydrolase isozyme L3; experiment: Inhibition of UCHL3 in human H1299 cells; type: cell-based
[6] = target: T5, Ubiquitin carboxyl-terminal hydrolase isozyme L1 (Homo sapiens, UniProt P09936); experiment: Inhibition of UCHL1 in human H1299 cells; type: cell-based
T5 sequence (P09936 whole entry): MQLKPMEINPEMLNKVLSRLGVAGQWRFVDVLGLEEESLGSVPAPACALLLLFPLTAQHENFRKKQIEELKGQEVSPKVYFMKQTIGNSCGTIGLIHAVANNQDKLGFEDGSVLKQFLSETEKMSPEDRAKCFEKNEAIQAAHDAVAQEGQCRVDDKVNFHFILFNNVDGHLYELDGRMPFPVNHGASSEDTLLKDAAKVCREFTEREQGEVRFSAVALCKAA

| Compound | pKi [1] | pKi [2] | pKi [3] | pKi [4] | pIC50 [5] | pIC50 [6] |
| --- | --- | --- | --- | --- | --- | --- |
| Nc1c(C(=O)c2ccccc2)sc2[nH]c(=O)c(C(=O)O)cc12 | < 4.00 | < 4.00 | < 4.00 | < 4.00 |  |  |
| CC(=O)O/N=C1/C(=O)N(Cc2ccc(Cl)c(Cl)c2)c2ccc(I)cc21 |  |  |  |  | 4.64 | 6.03 |
| CCCCc1ccc(-c2n[nH]c(=S)n2-c2ccc(C(C)C)cc2)cc1 |  |  |  |  | 4.33 | 3.90 |

Further compounds by rising pIC50 [5], results first:

| pKi [1] | pKi [2] | pKi [3] | pKi [4] | pIC50 [5] | pIC50 [6] | Compound |
| --- | --- | --- | --- | --- | --- | --- |
|  |  |  |  | 4.15 | 3.54 | CC1=CC(=O)c2ccccc2C1=O [MENADIONE] |
|  |  |  |  | 4.60 | 6.06 | CC(=O)O/N=C1/C(=O)N(Cc2cc(Cl)ccc2Cl)c2ccc(Br)cc21 |
|  |  |  |  | 4.77 | 6.09 | CC(=O)O/N=C1/C(=O)N(Cc2ccc(Cl)c(Cl)c2)c2ccc(Br)cc21 |
|  |  |  |  | 6.22 | 4.12 | O=C1CC(=O)c2c(Cl)c(Cl)c(Cl)c(Cl)c21 |
